Results published in patent US8703467B2 (priority 2004, dated 2014).
Like-named read-outs stand apart in the source and are kept apart here.

Tested on: mice
Method: A formalin-inactivated and a double-inactivated (formalin+UV-irradiation) RRV candidate vaccine was adjusted to 10 μg per dose, and then diluted in 4 fold steps. Each dilution was injected into a group of 10 mice. After 3 weeks the mice were boostered with the corresponding amount of the vaccine. Blood samples were drawn at week 3, before the booster, and at week 6, 3 weeks after the booster. The sera were analyzed by a RRV antibody ELISA. The effective dose 50 (ED50), this is the antigen dose which is sufficient to induce seroconversion in 50% of the immunized mice, was then calculated.

Substance: Formalin
- number of mice with ELISA-Titer 10^1 (Week 3, N 60): 8
- number of mice with ELISA-Titer 10^2 (Week 3, N 60): 8
- number of mice with ELISA-Titer 10^3 (Week 3, N 60): 9
- number of mice with ELISA-Titer 10^4 (Week 3, N 60): 0
- number of mice with ELISA-Titer 10^5 (Week 3, N 60): 0
- number of mice with ELISA-Titer 10^6 (Week 3, N 60): 0
- number of mice with ELISA-Titer 10^7 (Week 3, N 60): 0
- number of mice with ELISA-Titer 10^8 (Week 3, N 60): 0
- number of mice with ELISA-Titer <10^1 (Week 3, N 60): 35
- number of mice with ELISA-Titer 10^4 (Week 3, N 60, listed as formalin group): no mouse
- number of mice with ELISA-Titer 10^1 (Week 6, after booster, N 60): 7
- number of mice with ELISA-Titer 10^2 (Week 6, after booster, N 60): 5
- number of mice with ELISA-Titer 10^3 (Week 6, after booster, N 60): 15
- number of mice with ELISA-Titer 10^4 (Week 6, after booster, N 60): 11
- number of mice with ELISA-Titer 10^5 (Week 6, after booster, N 60): 8
- number of mice with ELISA-Titer 10^6 (Week 6, after booster, N 60): 0
- number of mice with ELISA-Titer 10^7 (Week 6, after booster, N 60): 0
- number of mice with ELISA-Titer 10^8 (Week 6, after booster, N 60): 0
- number of mice with ELISA-Titer <10^1 (Week 6, after booster, N 60): 14
- ED50 Week 6 (Booster) (mice, 3 weeks after the booster): 33 ng
- ED50 Week 3 (mice, before the booster, antigen dose inducing seroconversion in 50% of immunized mice): 635 ng
